Laboratory results reported in patent US10774114B2, “Respiratory syncytial virus (RSV) replication inhibitors” (priority 2014, dated 2020).
Where a SMILES comes first, the peptide text is derived from it. Bridges are numbered along the chain shown (N, C = ends). [ ]: non-standard residue; d: D form. R8 = C=CCCCCCC[C@@](C)(N)C(=O)O; R5 = C=CCCC[C@@](C)(N)C(=O)O; S5 = C=CCCC[C@](C)(N)C(=O)O

Assays:
RSV-mCherry virus = details: read-out: EC50, inhibition of viral replication; Hep2 cells infected with RSV-mCherry, peptides added post-infection, fluorescence read at 48 h
Protocol: HEp-2 cells were seeded in 96 well plates and infected with 500 PFU of rHRSV-Cherry virus. Following viral infection, cells were incubated in the presence of serial dilutions of stapled peptides. The red fluorescence was read at 48 h post infection by automatic counting.
rHRSV-mCherry Inhibition Assay.
HEp-2 cells were seeded at 5×10^4 cells per well in 96 well plates the day before and infected for 2 hours with 500 PFU of RSV-mCherry. The medium was then changed against MEM without phenol red medium containing dilutions of peptides. Each point of peptide dilution was made in duplicate. Plates were incubated 48 h at 37° C. and mCherry fluorescence measurement was performed using a spectrofluorometer (Tecan infinite M200PRO) with excitation and emission wavelengths of 580 and 620 nm, respectively (expressed in relative fluorescence units RFU). Non-infected HEp-2 cells were used as standards for fluorescence background levels.
Next the potential activity of stapled peptides was tested on infected cells. Hep2 cells were infected with a RSV-mCherry virus engineered by reverse genetics (Rameix-Welti et al, Nat Comm., 2014), and increasing concentrations of stapled peptides were added post-infection to study their effect on viral replication.

in vitro = assay type: cell-based; details: human
Protocol: (§1) HEp-2 (ATCC number CCL-23) and BHK-21 (clone BSRT7/5) cells were maintained in Eagle's miminum essential medium (EMEM) and Dulbecco's modified Eagle's medium (DMEM), respectively, supplemented with 10% FCS, 2 mM L-glutamine, and penicillin-streptomycin solution. The cells were grown in an incubator at 37° C. in 5% CO2. Cytotoxicity assays were done with the CellTiter-Glo Luminescent cell viability assay (Promega). Cells were transfected using Lipofectamine 2000 (Invitrogen, Cergy-Pontoise, France) as described by the manufacturer.

rHRSV-Luc = assay: In vivo mice luciferase assay (rHRSV-Luc-infected mice); details: intranasal, 0.6 mg/ml, 50 μL in PBS, repeated at days 2 and 4; 6x10^4 PFU rHRSV-Luc
Source text: In Vivo Mice Luciferase Assay.
Female BALB/c mice were purchased from the Centre d'ElevageR. Janvier (Le Genest Saint-Isle, France) and were used around 8 weeks of age. Mice strains were bred in a pathogen-free animal facility. Mice were fed normal mouse chow and water ad libitum and were raised and housed under standard conditions with air filtration. For infection experiments, mice were housed in cages inside stainless steel isolation cabinets that were ventilated under negative pressure with high-efficiency particulate air-filtered air. Mice were anesthetized by a mixture of ketamine and xylazine (1 and 0.2 mg per mouse, respectively) and infected IN with 50 μl of PBS containing 6×10^4 PFU of rHRSV-Luc. Body temperature and body weight were monitored at days 3-10. For in vivo imaging, mice were anesthetized. Alternatively, mice were killed at different time points, and lungs were then collected. For each time point, experiments were done in quadruplicate. […] Oral treatments were administered 1 h prior to RSV inoculation and then once on day 2 and on day 4. This experiment was repeated once.

Hep2 cells = assay: in vitro; assay type: cell-based; details: at a concentration of 100 μM
Protocol: as §1

[1] = Far-UV CD spectroscopy (alpha-helical content); assay type: physicochemical; details: 10 mM phosphate buffer, pH 7.5
Protocol: FIGS. 7A-7C: Far-UV CD spectra of stapled peptides in 10 mM phosphate buffer, pH 7.5. […] HEVS 115-129.
CD experiments were performed on a Jasco-810 or on a Chirascan spectropolarimeter in a thermostated cell holder at 20° C. The samples were prepared in 10 mM phosphate buffer, pH 7.5, at a peptide concentration of 25 μM for HEVS 73-79 or […] for the other peptides. The far-UV spectra were recorded at 25° C. by step scan from 190 nm to 250 nm with a scan rate of 100 nm per min using a bandwidth of 1 nm and an integration time of 1 s. Each spectrum was the average of 5 scans. The spectra were substracted from buffer baseline and smoothed using the FFT filter (Jasco Software, Tokyo, Japan). The data were converted to per residue molar ellipticity units [Θ] (deg.cm^2.dmol^−l.residue^−1). The percentage of helicity was calculated as follows:
[formula] whereby CD222=molar ellipticity [e] at 222 nm in [mdeg], N=number of amino acids in the peptide and C=peptide molar concentration [mol/1].

`CC[C@H](C)[C@H](NC(=O)[C@]1(C)CCCC=CCCCCCC[C@@](C)(NC(=O)[C@H](CC(N)=O)NC(=O)[C@H](CC(N)=O)NC(=O)[C@H](C)NC(=O)[C@H](CC(=O)O)NC(=O)[C@H](CCC(=O)O)NC(C)=O)C(=O)N[C@@H](C)C(=O)N[C@@H]([C@@H](C)O)C(=O)N[C@@H](CCCCN)C(=O)N[C@@H](Cc2ccccc2)C(=O)N[C@@H](CC(C)C)C(=O)N[C@@H](CCC(=O)O)C(=O)N1)C(=O)N[C@@H](CCCCN)C(=O)NCC(=O)N[C@@H](CCCCN)C(=O)N[C@@H](Cc1ccccc1)C(=O)N[C@@H](C)C(=O)N[C@@H](CO)C(N)=O` [HEVS 77, EDANNR8ATKFLES5IKGKFAS] (Ac-EDANN[R8]ATKFLE[S5]IKGKFAS-NH2; staple 6-13) showed an EC50 (RSV-mCherry virus) of 60 µM.
`CC[C@H](C)[C@@H]1NC(=O)[C@@](C)(NC(=O)[C@H](CCC(=O)O)NC(=O)[C@H](CC(C)C)NC(=O)[C@H](Cc2ccccc2)NC(=O)[C@H](CCCCN)NC(=O)[C@@H](NC(=O)[C@H](C)NC(=O)[C@H](CCCCN)NC(=O)[C@H](CC(N)=O)NC(=O)[C@H](CC(N)=O)NC(=O)[C@H](C)NC(=O)[C@H](CC(=O)O)NC(=O)[C@H](CCC(=O)O)NC(C)=O)[C@@H](C)O)CCCC=CCCC[C@@](C)(C(=O)N[C@@H](Cc2ccccc2)C(=O)N[C@@H](C)C(=O)N[C@@H](CO)C(N)=O)NC(=O)CNC(=O)[C@H](CCCCN)NC1=O` [HEVS 78] (Ac-EDANNKATKFLE[S5]IKG[S5]FAS-NH2; staple 13-17) showed a CC50 (in vitro) of roughly 40 µM and an EC50 (RSV-mCherry virus) of 15 µM.
Compound `CC[C@H](C)[C@@H]1NC(=O)[C@](C)(NC(=O)[C@H](CCC(=O)O)NC(=O)[C@H](CC(C)C)NC(=O)[C@H](Cc2ccccc2)NC(=O)[C@H](CCCCN)NC(=O)[C@@H](NC(=O)[C@H](C)NC(=O)[C@H](CCCCN)NC(=O)[C@H](CC(N)=O)NC(=O)[C@H](CC(N)=O)NC(=O)[C@H](C)NC(=O)[C@H](CC(=O)O)NC(=O)[C@H](CCC(=O)O)NC(C)=O)[C@@H](C)O)CCCCCCC=CCCC[C@@](C)(C(N)=O)NC(=O)[C@H](C)NC(=O)[C@H](Cc2ccccc2)NC(=O)[C@H](CCCCN)NC(=O)CNC(=O)[C@H](CCCCN)NC1=O` [HEVS 79] (Ac-EDANNKATKFLE[R8]IKGKFA[S5]-NH2; staple 13-20) has an EC50 (RSV-mCherry virus) of roughly 80 µM.
With `CC[C@H](C)[C@H](NC(=O)[C@]1(C)CCCC=CCCCCCC[C@@](C)(NC(=O)[C@H](CC(N)=O)NC(=O)[C@H](CC(N)=O)NC(=O)[C@H](C)NC(=O)[C@H](CC(=O)O)NC(=O)[C@H](CCC(=O)O)NC(=O)CNC(=O)[C@H](Cc2c[nH]cn2)NC(=O)[C@H](Cc2ccccc2)NC(=O)[C@H](CCC(=O)O)NC(C)=O)C(=O)N[C@@H](C)C(=O)N[C@@H]([C@@H](C)O)C(=O)N[C@@H](CCCCN)C(=O)N[C@@H](Cc2ccccc2)C(=O)N[C@@H](CC(C)C)C(=O)N[C@@H](CCC(=O)O)C(=O)N1)C(=O)N[C@@H](CCCCN)C(=O)NCC(=O)N[C@@H](CCCCN)C(=O)N[C@@H](Cc1ccccc1)C(=O)N[C@@H](C)C(=O)N[C@@H](CO)C(N)=O` [HEVS 124] the EC50 (RSV-mCherry virus) was 11 µM and the “luciferase activity (bioluminescence) in treated mice” value (rHRSV-Luc) was “significant reduction”.
In the case of `CC[C@H](C)[C@H](NC(=O)[C@]1(C)CCCC=CCCCCCC[C@@](C)(NC(=O)[C@H](CC(N)=O)NC(=O)[C@H](CC(N)=O)NC(=O)[C@H](C)NC(=O)[C@]2(C)CCCC=CCCC[C@@](C)(NC(=O)[C@H](Cc3ccccc3)NC(=O)[C@H](CCC(=O)O)NC(C)=O)C(=O)NCC(=O)N[C@@H](CCC(=O)O)C(=O)N2)C(=O)N[C@@H](C)C(=O)N[C@@H]([C@@H](C)O)C(=O)N[C@@H](CCCCN)C(=O)N[C@@H](Cc2ccccc2)C(=O)N[C@@H](CC(C)C)C(=O)N[C@@H](CCC(=O)O)C(=O)N1)C(=O)N[C@@H](CCCCN)C(=O)NCC(=O)N[C@@H](CCCCN)C(=O)N[C@@H](Cc1ccccc1)C(=O)N[C@@H](C)C(=O)N[C@@H](CO)C(N)=O` [HEVS 126, EFR5GES5ANNR8ATKFLES5IKGKFAS] (Ac-EF[R5]GE[S5]ANN[R8]ATKFLE[S5]IKGKFAS-NH2; staple 3-6, 10-17), the cytotoxicity (Hep2 cells) is reported as “cytotoxic” and the EC50 (RSV-mCherry virus) is reported as 3.5 µM.
With EDANNKATKFLESIKGKFAS [HEVS 73] the “folding state by far UV CD” value [1] was “largely unfolded”.
